Laboratory results: patent publication US8415295B2, “Heterocyclic boronic acid compounds” (Phenomix Corporation, priority 2003, dated 2013)

Assay: Dependence of aminoboronate (closed) and boronic acid (open) forms on pH, 1H-NMR in D2O phosphate
Assay type: physicochemical
Details: 0.4 M Na2HPO4 in D2O, three days in the dark, FIG. 1
Description: A 0.4 M stock solution of Na2HPO4 was prepared by dissolving 909 mg of salt in 16 mL of D2O. pH was adjusted to the desired value by dropwise addition of either […] in D2O or 5% DCl in D2O. The pH values were measured with a Fisher Scientific Accumet AB15 pH meter. Aliquots of the stock solution (4 mL) were prepared and 8 mg of compound 4 in the closed form (aminoboronate) were added to each one. The scintillation vials were capped, sealed with parafilm and allowed to stand in the dark for three days. After this time pH was measured again. The open/closed (i.e., linear/cyclic) ratio of compound 4 isomers at each pH was determined by recording the corresponding ^1H-NMR spectra in a Varian AS 500 MHz instrument and measuring the ratio of the integrals of the peaks at 2.90-2.95 ppm and 2.40-2.50 ppm characteristic of the open and closed forms, respectively.

For `O=C(CNC1CCCC1)N1CCC[C@H]1B(O)O` [Compound 4, (2R)-1-(2-Cyclopentylamino-acetyl)-boroPro-OH], the “open/closed (linear/cyclic) ratio of isomers at each pH” value was “the closed form predominates at higher pHs such as physiological pH, whereas the open form predominates at lower pHs”.
